According to patent publication US6372493B1, “Hormone-secreting cells maintained in long-term culture” (Pacific Biomedical Research, Inc. [Cell Mart, Inc.], priority 1991, dated 2002):

Columns and labels:
[1] = system: pancreas cells in long-term culture; experiment: Glucose-stimulated insulin secretion, pancreas cells generation 47, frozen/thawed or not (Example 17); assay type: cell-based, human
Procedure: The pancreas cell cultures described in Example 16 were passaged approximately every 3-5 days through generation 47. Passaging was done by placing 0.5-1.0 ml of cell suspension into 10 ml fresh medium in a flask. Each flask was flooded with medical blood gas mixture (supra), sealed, and maintained in an incubator at 37° C. Typically, each flask was flooded with fresh gas every other day. At passage 47, the cells had been in continuous culture for 9.5 months.
A portion of the pancreas cells at generation 47 were frozen according to the method described in Example 15 using cryopreservative A. The cells were stored frozen for 1 day, after which they were thawed according to the method described in Example 15.
The thawed cells and cells from generation 47 which had not been frozen were placed in DMSS medium and centrifuged at 1070 rpm for 5 minutes. The pellets were washed and resuspended in 30 ml of Medium PDM (Dulbecco's salt solution, phosphate buffered, with MgSO4 (no MgCl2), plus 2% BSA Fraction V), final osmolality adjusted to 272 mOsm) at 37°.
The cells were incubated 30 minutes at 37°, then centrifuged and resuspended as above. Cell count and viability were determined by Trypan blue exclusion.
The cells were then centrifuged and resuspended in a base medium consisting of 3 parts Medium PDM (supra) and 1 part DMSS, as defined in Example 6 above.

[2] = system: cultured pancreatic islet cells (daughter-islets); experiment: Immunofluorescence for insulin after BUDR labelling and glucose stimulation (Example 23); assay type: cell-based, human; conditions: 12 mM glucose 6 hours
Procedure: The tests were done on the same long term cultured daughter-islets described in Example 22, after 3 months of culture (8 passage generations) and after 8 months of cell culture (16 passage generations). Cultures of the daughter-islets were exposed to 30 μgm/ml BUDR for 5 days. The cultures were then placed in normal culture medium (OCZEM-M) for another 5 days. Cultures were then given the same glucose poor basal medium described in Formula VI for 4 hours. Subsequently medium containing 12 mM glucose, described in Example 22, was provided for 6 hours. Cells were immediately fixed and prepared for immunofluorescence. A FITC conjugated secondary antibody to detect BUDR incorporation during DNA synthesis and a TRITC conjugated secondary antibody to detect insulin synthesis in response to glucose stimulation were used according to the following protocol.
d. Cell preparation used procedures to swell the nucleus and preferentially fix the chromosomes in order to maximize the ability to detect BUDR incorporation. The procedures are commonly used to prepare human embryonic cells for florescence in situ hybridization (FISH).
9. Primary antibodies were added, 100 ul @ and the slides were incubated in a moist chamber for 18 hours at 20° C.
11. Secondary antibodies were added to EVERY slide (including the negative controls) in very dim light, 100 ul @ and then the slides were incubated in the dark for 60 minutes at room temperature.
16. After 24 hours the preparations were photographed with Kodak Ektar 100 using Zeiss optics and fluorescence filters (No 2 for Hoechst, No 9 for FITC and No 15 for TRITC).

SMILES: O=C[C@H](O)[C@@H](O)[C@H](O)[C@H](O)CO [glucose, D(+)glucose]
- Insulin secreted ([1]; pg 47, glucose total 1 mM, 1.5 or 3 hours): 92 μIU insulin secreted/ml/10,000
- Insulin secreted ([1]; pg 47, glucose total 2 mM): 100 μIU insulin secreted/ml/10,000
- Insulin secreted ([1]; pg 47, glucose total 6 mM): 111 μIU insulin secreted/ml/10,000
- Insulin secreted ([1]; pg 47, glucose total 11 mM): 117 μIU insulin secreted/ml/10,000
- Insulin secreted ([1]; pg 47, glucose total 16 mM): 129 μIU insulin secreted/ml/10,000
- Insulin secreted ([1]; pg 47, glucose total 21 mM): 116 μIU insulin secreted/ml/10,000
- Insulin secreted ([1]; pg47 frozen/thawed, glucose total 1 mM): 99 μIU insulin secreted/ml/10,000
- Insulin secreted ([1]; pg47 frozen/thawed, glucose total 2 mM): 105 μIU insulin secreted/ml/10,000
- Insulin secreted ([1]; pg47 frozen/thawed, glucose total 6 mM): 114 μIU insulin secreted/ml/10,000
- Insulin secreted ([1]; pg47 frozen/thawed, glucose total 11 mM): 128 μIU insulin secreted/ml/10,000
- Insulin secreted ([1]; pg47 frozen/thawed, glucose total 16 mM): 125 μIU insulin secreted/ml/10,000
- Insulin secreted ([1]; pg47 frozen/thawed, glucose total 21 mM): 124 μIU insulin secreted/ml/10,000
- Insulin positive ([2]; 8th passage generation (3 mo. culture)): 86%
- Insulin positive (number of cells) ([2]; 8th passage generation (3 mo. culture), 204 cells analyzed): 175
- Insulin positive ([2]; 16th passage generation (8 mos. culture)): 90%
- Insulin positive (number of cells) ([2]; 16th passage generation (8 mos. culture), 187 cells analyzed): 168
